In brackets after ≈: the same amount, converted by molar mass.
What was measured:
P. aeruginosa MSC01035 = experiment: MIC, agar plate dilution method, P. aeruginosa MSC01035; assay type: cell-based, Pseudomonas aeruginosa; settings: P. aeruginosa MSC01035, ABK-resistant; for MIC: Pseudomonas aeruginosa, read-out: minimal inhibitory concentration (MIC)
Method: (§1) As for the representative compounds of a new aminoglycoside antibiotic of the present invention described in Examples, the minimal inhibitory concentration (MIC, μg/mL) was measured for various assay strains of bacteria using an agar plate dilution method in accordance with the method described in the Japan Society of Chemotherapy.

P. aeruginosa MSC17707 = experiment: MIC, agar plate dilution method, P. aeruginosa MSC17707; assay type: cell-based, Pseudomonas aeruginosa; settings: for minimal inhibitory concentration (MIC): P. aeruginosa MSC17707, AMK-resistant; for MIC: Pseudomonas aeruginosa, MSC17707, P. aeruginosa MSC17707, AMK-resistant, read-out: minimal inhibitory concentration (MIC)
Method: as §1

S. aureus MF490 = experiment: MIC, agar plate dilution method, S. aureus MF490; assay type: cell-based, Staphylococcus aureus; settings: for minimal inhibitory concentration (MIC): S. aureus MF490, MRSA; for MIC: Staphylococcus aureus, MRSA, read-out: minimal inhibitory concentration (MIC)
Method: as §1

E. faecium ATCC19434 = experiment: MIC, agar plate dilution method, E. faecium ATCC19434; assay type: cell-based, Enterococcus faecium; settings: for minimal inhibitory concentration (MIC): E. faecium ATCC19434; for MIC: Enterococcus faecium, ATCC19434, E. faecium ATCC19434, read-out: minimal inhibitory concentration (MIC)
Method: as §1

E. coli JM109/pMW218 = experiment: MIC, agar plate dilution method, E. coli JM109/pMW218; assay type: cell-based, Escherichia coli; settings: for minimal inhibitory concentration (MIC): E. coli JM109/pMW218, Sensitive bacterium; for MIC: Escherichia coli, JM109/PMW218, E. coli JM109/pMW218, Sensitive bacterium, read-out: minimal inhibitory concentration (MIC)
Method: as §1

S. marcescens TH-0447 = experiment: MIC, agar plate dilution method, S. marcescens TH-0447; assay type: cell-based, Serratia marcescens; settings: for minimal inhibitory concentration (MIC): S. marcescens TH-0447, AMK-resistant; for MIC: Serratia marcescens, TH0447, S. marcescens TH-0447, AMK-resistant, read-out: minimal inhibitory concentration (MIC)
Method: as §1

P. aeruginosa PAO1 = experiment: MIC, agar plate dilution method, P. aeruginosa PAO1; assay type: cell-based, Pseudomonas aeruginosa; settings: for minimal inhibitory concentration (MIC): P. aeruginosa PAO1, Sensitive bacterium; for MIC: Pseudomonas aeruginosa, PAO1, P. aeruginosa PAO1, Sensitive bacterium, read-out: minimal inhibitory concentration (MIC)
Method: as §1

P. aeruginosa PAO1/GN315 = experiment: MIC, agar plate dilution method, P. aeruginosa PAO1/GN315; assay type: cell-based, Pseudomonas aeruginosa; settings: for minimal inhibitory concentration (MIC): P. aeruginosa PAO1/GN315, AMK-resistant; for MIC: Pseudomonas aeruginosa, read-out: minimal inhibitory concentration (MIC), P. aeruginosa PAO1/GN315, AMK-resistant
Method: as §1

[1] = system: K. pneumoniae ATCC BAA-1705; experiment: MIC, agar plate dilution method, K. pneumoniae ATCC BAA-1705; assay type: cell-based, Klebsiella pneumoniae; settings: for minimal inhibitory concentration (MIC): K. pneumoniae ATCC BAA-1705, KPC-producing strain; for MIC: Klebsiella pneumoniae, ATCCBAA1705, K. pneumoniae ATCC BAA-1705, KPC-producing strain, read-out: minimal inhibitory concentration (MIC)
Method: as §1

S. aureus RN4220 = experiment: MIC, agar plate dilution method, S. aureus RN4220; assay type: cell-based, Staphylococcus aureus; settings: for minimal inhibitory concentration (MIC): S. aureus RN4220, Sensitive bacterium; for MIC: Staphylococcus aureus, RN4220, S. aureus RN4220, Sensitive bacterium, read-out: minimal inhibitory concentration (MIC)
Method: as §1

S. aureus RN4220/pMS520 = experiment: MIC, agar plate dilution method, S. aureus RN4220/pMS520; assay type: cell-based, Staphylococcus aureus; settings: for minimal inhibitory concentration (MIC): S. aureus RN4220/pMS520, MRSA; for MIC: Staphylococcus aureus, MRSA, read-out: minimal inhibitory concentration (MIC), S. aureus RN4220/pMS520, MRSA
Method: as §1

[2] = system: A. baumannii ATCC BAA-1710; experiment: MIC, agar plate dilution method, A. baumannii ATCC BAA-1710; assay type: cell-based, Acinetobacter baumannii; settings: for minimal inhibitory concentration (MIC): A. baumannii ATCC BAA-1710, MDRA; for MIC: Acinetobacter baumannii, ATCCBAA1710, A. baumannii ATCC BAA-1710, MDRA, read-out: minimal inhibitory concentration (MIC)
Method: as §1

S. marcescens GN6944 = experiment: MIC, agar plate dilution method, S. marcescens GN6944; assay type: cell-based, Serratia marcescens; settings: S. marcescens GN6944, GM-resistant; for MIC: Serratia marcescens, read-out: minimal inhibitory concentration (MIC)
Method: as §1

[3] = system: K. pneumoniae ATCC BAA-2146; experiment: MIC, agar plate dilution method, K. pneumoniae ATCC BAA-2146; assay type: cell-based, Klebsiella pneumoniae; settings: for minimal inhibitory concentration (MIC): K. pneumoniae ATCC BAA-2146, NDM-producing strain; for MIC: Klebsiella pneumoniae, ATCCBAA2146, K. pneumoniae ATCC BAA-2146, NDM-producing strain, read-out: minimal inhibitory concentration (MIC)
Method: as §1

SMILES | minimal inhibitory concentration (MIC) (P. aeruginosa MSC01035) [µg/mL] | minimal inhibitory concentration (MIC) (P. aeruginosa MSC17707) [µg/mL] | minimal inhibitory concentration (MIC) (S. aureus MF490) [µg/mL] | minimal inhibitory concentration (MIC) (E. faecium ATCC19434) [µg/mL] | minimal inhibitory concentration (MIC) (E. coli JM109/pMW218) [µg/mL] | minimal inhibitory concentration (MIC) (S. marcescens TH-0447) [µg/mL] | minimal inhibitory concentration (MIC) (P. aeruginosa PAO1) [µg/mL] | minimal inhibitory concentration (MIC) (P. aeruginosa PAO1/GN315) [µg/mL] | minimal inhibitory concentration (MIC) [1] [µg/mL] | minimal inhibitory concentration (MIC) (S. aureus RN4220) [µg/mL] | minimal inhibitory concentration (MIC) (S. aureus RN4220/pMS520) [µg/mL] | minimal inhibitory concentration (MIC) [2] [µg/mL] | minimal inhibitory concentration (MIC) (S. marcescens GN6944) [µg/mL] | minimal inhibitory concentration (MIC) [3] [µg/mL] | also measured
CNC1C(O[C@H]2OC(CO)[C@@H](NC3CNC3)[C@H](O)C2O)O[C@H]2CC(N)[C@@H](O[C@@H]3C(N)C[C@@H](N)C(O)[C@H]3O)OC2C1O (stereo partly drawn) [Compound A4-h, 4″-N-(azetidin-3-yl)apramycin] | 16 (≈ 26.9 µM) | 16 (≈ 26.9 µM) | 16 (≈ 26.9 µM) | 32 (≈ 53.8 µM) | 2 (≈ 3.36 µM) | 16 (≈ 26.9 µM) | 8 (≈ 13.5 µM) | 16 (≈ 26.9 µM) | 4 (≈ 6.73 µM) | 4 (≈ 6.73 µM) | 4 (≈ 6.73 µM) | 16 (≈ 26.9 µM) | 8 (≈ 13.5 µM) | 2 (≈ 3.36 µM) | –
CNC1C(O[C@H]2OC(CO)[C@@H](NC3CN(C)C3)[C@H](O)C2O)O[C@H]2CC(N)[C@@H](O[C@@H]3C(N)C[C@@H](N)C(O)[C@H]3O)OC2C1O (stereo partly drawn) [Compound A4-i, 4″-N-(1-methylazetidin-3-yl)apramycin] | – | – | – | – | – | – | – | – | – | – | – | – | – | – | MIC (P. aeruginosa MSC01035): 16 µg/mL (≈ 26.3 µM); MIC (P. aeruginosa MSC17707): 16 µg/mL (≈ 26.3 µM); MIC (S. aureus MF490): 16 µg/mL (≈ 26.3 µM); MIC (E. faecium ATCC19434): 32 µg/mL (≈ 52.6 µM); MIC (E. coli JM109/pMW218): 1 µg/mL (≈ 1.64 µM); MIC (S. marcescens TH-0447): 16 µg/mL (≈ 26.3 µM); MIC (P. aeruginosa PAO1): 8 µg/mL (≈ 13.1 µM); MIC (P. aeruginosa PAO1/GN315): 16 µg/mL (≈ 26.3 µM); MIC [1]: 2 µg/mL (≈ 3.29 µM); MIC (S. aureus RN4220): 4 µg/mL (≈ 6.57 µM); MIC (S. aureus RN4220/pMS520): 4 µg/mL (≈ 6.57 µM); MIC [2]: 16 µg/mL (≈ 26.3 µM); MIC (S. marcescens GN6944): 8 µg/mL (≈ 13.1 µM); MIC [3]: 2 µg/mL (≈ 3.29 µM)
CNC1C(O[C@H]2OC(CO)[C@@H](NC(=N)N)[C@H](O)C2O)O[C@H]2CC(N)[C@@H](O[C@@H]3C(N)C[C@@H](N)C(O)[C@H]3O)OC2C1O (stereo partly drawn) [Compound A4-j, 4″-deamino-4″-guanidinoapramycin] | – | – | – | – | – | – | – | – | – | – | – | – | – | – | MIC (P. aeruginosa MSC01035): 8 µg/mL (≈ 13.8 µM); MIC (P. aeruginosa MSC17707): 8 µg/mL (≈ 13.8 µM); MIC (S. aureus MF490): 8 µg/mL (≈ 13.8 µM); MIC (E. faecium ATCC19434): 16 µg/mL (≈ 27.5 µM); MIC (E. coli JM109/pMW218): 1 µg/mL (≈ 1.72 µM); MIC (S. marcescens TH-0447): 8 µg/mL (≈ 13.8 µM); MIC (P. aeruginosa PAO1): 4 µg/mL (≈ 6.88 µM); MIC (P. aeruginosa PAO1/GN315): 8 µg/mL (≈ 13.8 µM); MIC [1]: 2 µg/mL (≈ 3.44 µM); MIC (S. aureus RN4220): 2 µg/mL (≈ 3.44 µM); MIC (S. aureus RN4220/pMS520): 2 µg/mL (≈ 3.44 µM); MIC [2]: 8 µg/mL (≈ 13.8 µM); MIC (S. marcescens GN6944): 4 µg/mL (≈ 6.88 µM); MIC [3]: 1 µg/mL (≈ 1.72 µM)
CNC1C(OC2OC(CO)C(NCCNC(=N)N)C(O)C2O)OC2CC(N)C(OC3C(N)CC(N)C(O)C3O)OC2C1O (stereo not drawn) [Compound A4-k, 4″-N-guanidinoethylapramycin] | 16 (≈ 25.6 µM) | 16 (≈ 25.6 µM) | 16 (≈ 25.6 µM) | 16 (≈ 25.6 µM) | 0.5 (≈ 0.8 µM) | 8 (≈ 12.8 µM) | 8 (≈ 12.8 µM) | 8 (≈ 12.8 µM) | 1 (≈ 1.6 µM) | 2 (≈ 3.2 µM) | 2 (≈ 3.2 µM) | 8 (≈ 12.8 µM) | 4 (≈ 6.4 µM) | 1 (≈ 1.6 µM) | –
CNC1C(OC2OC(CO)C(N)C(O)C2O)OC2CC(N)C(OC3C(N)CC(N)C(O)C3O)OC2C1O (stereo not drawn) [Compound B5, 5-epiapramycin] | 4 (≈ 7.41 µM) | 4 (≈ 7.41 µM) | 8 (≈ 14.8 µM) | 16 (≈ 29.7 µM) | 1 (≈ 1.85 µM) | 8 (≈ 14.8 µM) | 4 (≈ 7.41 µM) | 4 (≈ 7.41 µM) | 1 (≈ 1.85 µM) | 4 (≈ 7.41 µM) | 2 (≈ 3.71 µM) | 8 (≈ 14.8 µM) | 8 (≈ 14.8 µM) | 1 (≈ 1.85 µM) | –
CNC1C(OC2OC(CO)C(N)C(O)C2O)OC2CC(N)C(OC3C(N)CC(N)C(O)C3F)OC2C1O (stereo not drawn) [Compound B7, 5-deoxy-5-epi-5-fluoroapramycin] | 8 (≈ 14.8 µM) | 8 (≈ 14.8 µM) | 16 (≈ 29.5 µM) | 32 (≈ 59.1 µM) | 1 (≈ 1.85 µM) | 16 (≈ 29.5 µM) | 4 (≈ 7.39 µM) | 8 (≈ 14.8 µM) | 2 (≈ 3.69 µM) | 4 (≈ 7.39 µM) | 4 (≈ 7.39 µM) | 8 (≈ 14.8 µM) | 8 (≈ 14.8 µM) | 2 (≈ 3.69 µM) | –
CN[C@@H]1[C@@H](O[C@H]2O[C@H](CO)[C@@H](N)[C@H](O)[C@H]2O)O[C@H]2C[C@@H](N)[C@@H](O[C@@H]3[C@@H](N)C[C@@H](N)C[C@@H]3O)O[C@@H]2[C@@H]1O [Compound C6, 6-deoxy-5-epiapramycin] | 8 (≈ 15.3 µM) | 8 (≈ 15.3 µM) | 8 (≈ 15.3 µM) | 16 (≈ 30.6 µM) | 1 (≈ 1.91 µM) | 8 (≈ 15.3 µM) | 4 (≈ 7.64 µM) | 4 (≈ 7.64 µM) | 2 (≈ 3.82 µM) | 4 (≈ 7.64 µM) | 4 (≈ 7.64 µM) | 8 (≈ 15.3 µM) | 4 (≈ 7.64 µM) | 1 (≈ 1.91 µM) | –
CNC1C(OC2OC(CO)C(N)C(O)C2O)OC2CC(N)C(OC3C(N)CC(N)CC3F)OC2C1O (stereo not drawn) [Compound C8, 5,6-dideoxy-5-fluoroapramycin] | 8 (≈ 15.2 µM) | 4 (≈ 7.61 µM) | 8 (≈ 15.2 µM) | 16 (≈ 30.4 µM) | 1 (≈ 1.9 µM) | 8 (≈ 15.2 µM) | 4 (≈ 7.61 µM) | 4 (≈ 7.61 µM) | 1 (≈ 1.9 µM) | 2 (≈ 3.81 µM) | 2 (≈ 3.81 µM) | 8 (≈ 15.2 µM) | 4 (≈ 7.61 µM) | 1 (≈ 1.9 µM) | –
CNC1C(OC2OC(CO)C(N)C(O)C2O)OC2CC(N)C(OC3C(N)CC(N)CC3N)OC2C1O (stereo not drawn) [Compound C11, 5-amino-5,6-dideoxyapramycin] | 32 (≈ 61.2 µM) | 16 (≈ 30.6 µM) | 16 (≈ 30.6 µM) | 32 (≈ 61.2 µM) | 2 (≈ 3.83 µM) | 16 (≈ 30.6 µM) | 16 (≈ 30.6 µM) | 16 (≈ 30.6 µM) | 4 (≈ 7.65 µM) | 8 (≈ 15.3 µM) | 8 (≈ 15.3 µM) | 16 (≈ 30.6 µM) | 16 (≈ 30.6 µM) | 4 (≈ 7.65 µM) | –

— patent publication US11135234B2, “Effective aminoglycoside antibiotic for multidrug-resistant bacteria” (MICROBIAL CHEMISTRY RESEARCH FOUNDATION, priority 2015, dated 2021)
